{"source": "paper PMC8467848", "about": "(Molecules, 2021)", "key": {"μ-opioid receptor": {"biological_target": "T1, μ-opioid receptor (Mus musculus, UniProt P42866)", "T1 construct": "performed on mouse brain homogenates in the presence of ^3H-DAMGO for μ-receptor; from tissue; host or cells: mouse brain membranes / homogenates", "T1 sequence (P42866 whole entry)": "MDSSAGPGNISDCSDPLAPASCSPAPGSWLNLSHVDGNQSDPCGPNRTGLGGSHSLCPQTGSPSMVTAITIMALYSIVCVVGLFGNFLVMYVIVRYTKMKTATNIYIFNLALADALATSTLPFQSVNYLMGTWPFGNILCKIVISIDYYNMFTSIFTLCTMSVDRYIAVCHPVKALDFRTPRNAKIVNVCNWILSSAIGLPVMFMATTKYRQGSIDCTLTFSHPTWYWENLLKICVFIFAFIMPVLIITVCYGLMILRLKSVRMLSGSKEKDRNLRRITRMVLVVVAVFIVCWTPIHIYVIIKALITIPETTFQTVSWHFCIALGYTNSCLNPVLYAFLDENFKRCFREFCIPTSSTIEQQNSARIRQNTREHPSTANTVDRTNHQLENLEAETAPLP", "assay": "biochemical", "format": "binding"}, "δ-opioid receptor": {"biological_target": "T2, δ-opioid receptor (Mus musculus, UniProt P32300)", "T2 construct": "performed on mouse brain homogenates; from tissue; host or cells: mouse brain membranes / homogenates", "T2 sequence (P32300 whole entry)": "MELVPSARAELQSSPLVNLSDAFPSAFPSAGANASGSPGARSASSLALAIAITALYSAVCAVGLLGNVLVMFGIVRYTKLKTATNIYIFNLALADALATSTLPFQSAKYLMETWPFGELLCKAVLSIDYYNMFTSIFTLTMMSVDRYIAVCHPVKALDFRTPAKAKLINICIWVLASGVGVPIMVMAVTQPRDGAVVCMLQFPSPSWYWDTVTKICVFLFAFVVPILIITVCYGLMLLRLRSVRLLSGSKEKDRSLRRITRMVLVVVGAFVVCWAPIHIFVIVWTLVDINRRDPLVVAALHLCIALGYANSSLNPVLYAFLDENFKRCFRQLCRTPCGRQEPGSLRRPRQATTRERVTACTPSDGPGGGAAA", "assay": "biochemical", "format": "binding"}, "κ-opioid receptor": {"biological_target": "T3, κ-opioid receptor (Mus musculus, UniProt P33534)", "T3 construct": "performed on mouse brain homogenates; from tissue; host or cells: mouse brain membranes / homogenates", "T3 sequence (P33534 whole entry)": "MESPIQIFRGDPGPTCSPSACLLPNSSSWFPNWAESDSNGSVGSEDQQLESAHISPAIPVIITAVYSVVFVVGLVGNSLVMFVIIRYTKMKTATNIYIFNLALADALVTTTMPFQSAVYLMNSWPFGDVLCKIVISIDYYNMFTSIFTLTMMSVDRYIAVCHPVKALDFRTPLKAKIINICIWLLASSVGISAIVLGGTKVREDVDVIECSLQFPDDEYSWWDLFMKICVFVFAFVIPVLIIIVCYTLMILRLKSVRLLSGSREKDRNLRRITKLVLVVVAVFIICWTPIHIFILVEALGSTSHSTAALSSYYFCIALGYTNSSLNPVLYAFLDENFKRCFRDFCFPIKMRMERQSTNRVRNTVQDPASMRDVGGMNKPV", "assay": "biochemical", "format": "binding"}}, "note": "Structures can show the parent of a compound that is named as a salt."}
{"smiles": "CCC(=O)N1C2CCC3C1CCC2N3CC=C1CCc2cc(Cl)ccc21", "note": "(as salt: hydrochloride)", "values": [{"measurement": "melting point", "value": "179 to 181", "unit": "°C"}]}
{"smiles": "CCC(=O)N1C2CCC1C1CCC2N1Cc1cnc2ccccc2n1", "note": "[Compound 59, 9-Propionyl-10-(quinoxalyn-2-ylmethyl)-9,10-diazatricyclo[4.2.1.1^2,5]decane]", "values": [{"measurement": "Ki", "setting": "μ-opioid receptor", "value": "> 1", "unit": "µM"}, {"measurement": "Ki", "setting": "δ-opioid receptor", "value": "> 1", "unit": "µM"}, {"measurement": "Ki", "setting": "κ-opioid receptor", "value": "> 1", "unit": "µM"}]}
{"smiles": "CCC(=O)N1C2CCC1C1CCC2N1CC=C1CCc2cc(Cl)ccc21", "note": "(as salt: hydrochloride)", "values": [{"measurement": "melting point", "value": "170 to 173", "unit": "°C"}]}
{"smiles": "CCC(=O)N1C2CCC3C1CCC2N3Cc1cc2ccccc2[nH]1", "note": "[Compound 54, 2-Propionyl-7-(1H-indol-2-ylmethyl)-2,7-diazatricyclo[4.4.0.0^3.8]decane]", "values": [{"measurement": "Ki", "setting": "μ-opioid receptor", "value": "0.5 ± 0.045", "unit": "µM"}, {"measurement": "fold lower μ-affinity compared to its isomer", "setting": "μ-opioid receptor", "value": 23, "unit": "fold"}, {"measurement": "Ki", "setting": "δ-opioid receptor", "value": "> 1", "unit": "µM"}, {"measurement": "Ki", "setting": "κ-opioid receptor", "value": "> 1", "unit": "µM"}]}
{"smiles": "CCC(=O)N1C2CCC3C1CCC2N3CC=C1CCc2ccccc21", "note": "(as salt: hydrochloride)", "values": [{"measurement": "melting point", "value": "167 to 170", "unit": "°C"}]}
{"smiles": "CCC(=O)N1C2CCC1C1CCC2N1CC=C1CCc2cc(F)ccc21", "note": "(as salt: hydrochloride)", "values": [{"measurement": "melting point", "value": "181 to 183", "unit": "°C"}]}
{"smiles": "CCC(=O)N1C2CCC1C1CCC2N1Cc1cc2ccccc2[nH]1", "note": "(as salt: hydrochloride) [Compound 53, 9-Propionyl-10-(1H-indol-2-ylmethyl)-9, 10-diazatricyclo[4.2.1.1^2.5]decane]", "values": [{"measurement": "melting point", "value": 106, "unit": "°C"}]}
{"smiles": "CCC(=O)N1C2CCC3C1CCC2N3Cc1ccc2ccccc2n1", "note": "[Compound 58, 2-Propionyl-7-(quinolyn-2-ylmethyl)-2,7-diazatricyclo[4.2.0.0^3,8]decane]", "values": [{"measurement": "Ki", "setting": "μ-opioid receptor", "value": "0.49 ± 0.046", "unit": "µM"}, {"measurement": "Ki", "setting": "δ-opioid receptor", "value": "> 1", "unit": "µM"}, {"measurement": "Ki", "setting": "κ-opioid receptor", "value": "> 1", "unit": "µM"}]}
{"smiles": "CCC(=O)N1C2CCC1C1CCC2N1Cc1cnc2ccccc2n1", "note": "(as salt: hydrochloride) [Compound 59, 9-Propionyl-10-(quinoxalyn-2-ylmethyl)-9,10-diazatricyclo[4.2.1.1^2,5]decane]", "values": [{"measurement": "melting point", "value": 128, "unit": "°C"}]}
{"smiles": "CCC(=O)N1C2CCC1C1CCC2N1Cc1cc2ccccc2[nH]1", "note": "[Compound 53, 9-Propionyl-10-(1H-indol-2-ylmethyl)-9, 10-diazatricyclo[4.2.1.1^2.5]decane]", "values": [{"measurement": "Ki", "setting": "μ-opioid receptor", "value": "0.022 ± 0.003", "unit": "µM"}, {"measurement": "μ-affinity / binding in words", "setting": "μ-opioid receptor", "value": "nanomolar range"}, {"measurement": "Ki", "setting": "δ-opioid receptor", "value": "> 1", "unit": "µM"}, {"measurement": "affinity towards δ-receptors in words", "setting": "δ-opioid receptor", "value": "negligible affinity"}, {"measurement": "Ki", "setting": "κ-opioid receptor", "value": "> 1", "unit": "µM"}, {"measurement": "affinity towards κ-receptors in words", "setting": "κ-opioid receptor", "value": "negligible affinity"}]}
{"smiles": "CCC(=O)N1C2CCC3C1CCC2N3CC=C1CCc2cc(Br)ccc21", "note": "(as salt: hydrochloride)", "values": [{"measurement": "melting point", "value": "177 to 179", "unit": "°C"}]}
{"smiles": "CCC(=O)N1C2CCC3C1CCC2N3Cc1cc2ccccc2[nH]1", "note": "(as salt: hydrochloride) [Compound 54, 2-Propionyl-7-(1H-indol-2-ylmethyl)-2,7-diazatricyclo[4.4.0.0^3.8]decane]", "values": [{"measurement": "melting point", "value": 54, "unit": "°C"}]}
{"smiles": "CCC(=O)N1C2CCC3C1CCC2N3CC=C1CCc2cc(F)ccc21", "note": "(as salt: hydrochloride) [Compound 25, 2-Propionyl-7-[(E)-1-(2-(5-fluoro-2,3-dihydro-1H-inden-1-ylidene)ethyl]-2,7-diazatricyclo[4.2.0.0^3,8]decane]", "values": [{"measurement": "melting point", "value": "131 to 133", "unit": "°C"}]}
{"smiles": "CCC(=O)N1C2CCC1C1CCC2N1CC=C1CCc2cc(Br)ccc21", "note": "(as salt: hydrochloride)", "values": [{"measurement": "melting point", "value": "167 to 170", "unit": "°C"}]}
{"smiles": "CCC(=O)N1C2CCC1C1CCC2N1CC=C1CCc2ccccc21", "note": "(as salt: hydrochloride)", "values": [{"measurement": "melting point", "value": "132 to 134", "unit": "°C"}]}
